{"source": "the supplement of paper PMC10307832", "test_in_all_cases": "relative viability (nuclei count vs DMSO), 5 days (fraction); higher = more cells survive", "key": {"[1]": {"tested_on": "NCI-H2228", "conditions": "first compound 0.1 µM", "method_in_brief": "(§1)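 Five library-drug doses in √10 steps were combined with a fixed anchor-drug dose, or a single drug was given alone, by pin tool to lung cancer cell lines in 1536-well plates the day after seeding. Nuclei were stained and counted after 5 days. Relative viability is the nuclei count in treated wells over that in vehicle wells, taken as the median of duplicate plates.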"}, "[2]": {"tested_on": "LC-2-ad", "method_in_brief": "as §1"}, "[3]": {"tested_on": "HCC-78", "method_in_brief": "as §1"}, "[4]": {"tested_on": "SW 900", "method_in_brief": "as §1"}, "[5]": {"tested_on": "EMC-BAC-2", "method_in_brief": "as §1"}, "[6]": {"tested_on": "NCI-H2170", "method_in_brief": "as §1"}, "[7]": {"tested_on": "HCC-366", "method_in_brief": "as §1"}, "[8]": {"tested_on": "NCI-H650", "method_in_brief": "as §1"}, "[9]": {"tested_on": "NCI-H1563", "method_in_brief": "as §1"}, "[10]": {"tested_on": "NCI-H1666", "method_in_brief": "as §1"}, "[11]": {"tested_on": "NCI-H1915", "method_in_brief": "as §1"}, "[12]": {"tested_on": "NCI-H1650", "method_in_brief": "as §1"}}, "data": [{"smiles": "Cc1cn(-c2cc(NC(=O)c3ccc(C)c(Nc4nccc(-c5cccnc5)n4)c3)cc(C(F)(F)F)c2)cn1", "note": "[Nilotinib] + Nc1nc2[nH]cc(CCc3ccc(C(=O)N[C@@H](CCC(=O)O)C(=O)O)cc3)c2c(=O)[nH]1 [Pemetrexed] (partner 0.2 µM)", "values": [{"measurement": "relative viability", "setting": "[1]", "value": 0.165}, {"measurement": "relative viability", "setting": "[2]; first compound 0.001 µM", "value": 0.248}, {"measurement": "relative viability", "setting": "[2]; first compound 0.003162 µM", "value": 0.251}, {"measurement": "relative viability", "setting": "[2]; first compound 0.01 µM", "value": 0.257}, {"measurement": "relative viability", "setting": "[2]; first compound 0.03162 µM", "value": 0.251}, {"measurement": "relative viability", "setting": "[2]; first compound 0.1 µM", "value": 0.248}, {"measurement": "relative viability", "setting": "[3]; first compound 0.001 µM", "value": 0.897}, {"measurement": "relative viability", "setting": "[3]; first compound 0.003162 µM", "value": 0.654}, {"measurement": "relative viability", "setting": "[3]; first compound 0.01 µM", "value": 0.836}, {"measurement": "relative viability", "setting": "[3]; first compound 0.03162 µM", "value": 0.8}, {"measurement": "relative viability", "setting": "[3]; first compound 0.1 µM", "value": 0.935}, {"measurement": "relative viability", "setting": "[4]; first compound 0.003162 µM", "value": 0.459}, {"measurement": "relative viability", "setting": "[4]; first compound 0.01 µM", "value": 0.38}, {"measurement": "relative viability", "setting": "[4]; first compound 0.03162 µM", "value": 0.239}, {"measurement": "relative viability", "setting": "[4]; first compound 0.1 µM", "value": 0.245}, {"measurement": "relative viability", "setting": "[5]; first compound 0.001 µM", "value": 0.427}, {"measurement": "relative viability", "setting": "[5]; first compound 0.003162 µM", "value": 0.618}, {"measurement": "relative viability", "setting": "[5]; first compound 0.01 µM", "value": 0.471}, {"measurement": "relative viability", "setting": "[5]; first compound 0.03162 µM", "value": 0.46}, {"measurement": "relative viability", "setting": "[5]; first compound 0.1 µM", "value": 0.437}, {"measurement": "relative viability", "setting": "[6]; first compound 0.001 µM", "value": 0.265}, {"measurement": "relative viability", "setting": "[6]; first compound 0.003162 µM", "value": 0.261}, {"measurement": "relative viability", "setting": "[6]; first compound 0.03162 µM", "value": 0.252}, {"measurement": "relative viability", "setting": "[6]; first compound 0.1 µM", "value": 0.315}, {"measurement": "relative viability", "setting": "[7]; first compound 0.001 µM", "value": 0.157}, {"measurement": "relative viability", "setting": "[7]; first compound 0.003162 µM", "value": 0.129}, {"measurement": "relative viability", "setting": "[7]; first compound 0.01 µM", "value": 0.163}, {"measurement": "relative viability", "setting": "[7]; first compound 0.03162 µM", "value": 0.106}, {"measurement": "relative viability", "setting": "[7]; first compound 0.1 µM", "value": 0.115}, {"measurement": "relative viability", "setting": "[8]; first compound 0.001 µM", "value": 0.887}, {"measurement": "relative viability", "setting": "[8]; first compound 0.003162 µM", "value": 0.86}, {"measurement": "relative viability", "setting": "[8]; first compound 0.01 µM", "value": 1.12}, {"measurement": "relative viability", "setting": "[8]; first compound 0.03162 µM", "value": 0.914}, {"measurement": "relative viability", "setting": "[8]; first compound 0.1 µM", "value": 0.746}, {"measurement": "relative viability", "setting": "[9]; first compound 0.001 µM", "value": 0.746}, {"measurement": "relative viability", "setting": "[9]; first compound 0.003162 µM", "value": 0.712}, {"measurement": "relative viability", "setting": "[9]; first compound 0.01 µM", "value": 0.796}, {"measurement": "relative viability", "setting": "[9]; first compound 0.03162 µM", "value": 0.667}, {"measurement": "relative viability", "setting": "[9]; first compound 0.1 µM", "value": 0.552}, {"measurement": "relative viability", "setting": "[10]; first compound 0.001 µM", "value": 0.768}, {"measurement": "relative viability", "setting": "[10]; first compound 0.003162 µM", "value": 0.78}, {"measurement": "relative viability", "setting": "[10]; first compound 0.01 µM", "value": 0.846}, {"measurement": "relative viability", "setting": "[10]; first compound 0.03162 µM", "value": 0.717}, {"measurement": "relative viability", "setting": "[10]; first compound 0.1 µM", "value": 0.9}, {"measurement": "relative viability", "setting": "[11]; first compound 0.001 µM", "value": 0.435}, {"measurement": "relative viability", "setting": "[11]; first compound 0.003162 µM", "value": 0.427}, {"measurement": "relative viability", "setting": "[11]; first compound 0.01 µM", "value": 0.532}, {"measurement": "relative viability", "setting": "[11]; first compound 0.03162 µM", "value": 0.449}, {"measurement": "relative viability", "setting": "[11]; first compound 0.1 µM", "value": 0.438}, {"measurement": "relative viability", "setting": "[12]; first compound 0.001 µM", "value": 0.409}, {"measurement": "relative viability", "setting": "[12]; first compound 0.003162 µM", "value": 0.526}, {"measurement": "relative viability", "setting": "[12]; first compound 0.01 µM", "value": 0.39}, {"measurement": "relative viability", "setting": "[12]; first compound 0.03162 µM", "value": 0.375}, {"measurement": "relative viability", "setting": "[12]; first compound 0.1 µM", "value": 0.498}]}]}
